The values below are quoted from earlier work in article PMC12609579, “Acute Myeloid Leukemia: A Key Role of DGKα and DGKζ in Cell Viability” (Cells, 2025).

For orientation: IC50 means the point on the concentration scale where inhibition reaches its midpoint.

Read-outs that look alike come from different tables or passages of the source.

In this data set the test system is KG-1α. Also on record: method as in PMID 37392305. The settings on record: read-out: IC50 (cytotoxic effects), cited from earlier work.

With `Cc1nc2sccn2c(=O)c1CCN1CCC(=C(c2ccc(F)cc2)c2ccc(F)cc2)CC1` [ritanserin], the IC50 was 38 µM (24 h) and 26 µM (72 h).
